In paper PMC5118696, “Identification of inhibitors that dually target the new permeability pathway and dihydroorotate dehydrogenase in the blood stage of Plasmodium falciparum” (Scientific Reports, 2016):
Like-named read-outs stand apart in the source and are kept apart here.

Tests used:
[1] = system: Hyp1-NLuc Plasmodium falciparum-infected erythrocytes (new permeability pathway, NPP); test: microbe, parasite or virus in culture; settings: Erythrocyte, 0.33 h, read-out: % of control remaining
[2] = system: Hyp1-NLuc Plasmodium falciparum-infected erythrocytes (new permeability pathway, NPP); test: microbe, parasite or virus in culture; settings: Erythrocyte, 0.33 h, read-out: Mean RLU at 28 min (As % of DMSO control)

Compound	activity at 2 µM [1] [%]	activity at 2 µM [2] [%]
COc1ccc2nc(C)cc(Nc3cccc(O)c3)c2c1 [MMV008212]	107	106
CCOC(=O)c1cnc2ccc(Cl)cc2c1NCCCN(C)C [MMV006882]	110	106
COc1ccc2nc(C)cc(Nc3ccc(Cl)cc3)c2c1 [MMV007875]	99.5	98.8
CCOc1ccccc1CNC(=O)C1c2ccccc2C(=O)N(CC(C)C)C1c1cccs1 (stereo not shown) [MMV000653]	119	105
CC(Oc1ccc(NC(=O)c2cccs2)cc1)C(=O)c1ccc(Cl)cc1 (stereo not shown) [MMV665886]	84.1	86.9
COc1ccc(C(=O)Nc2ccc3nc(N4CCCCC4)cc(C)c3c2)cc1OC [MMV019758]	108	100
CCOC(=O)c1c(C)n(-c2ccc(Cl)cc2)c2ccc(OC(=O)C=Cc3ccccc3)cc12 [MMV666600]	100	101
Cc1cccc(N2C(=O)C3C(C2=O)C2(c4ccccc4)C(=O)C3(c3ccccc3)C(c3ccc4c(c3)OCO4)=C2c2ccc3c(c2)OCO3)c1 (stereo not shown) [MMV007228]	107	99.5
CCOc1ccc(N2C(N)=NC(N)=NC2(C)C)cc1 [MMV667486]	98	98.6
CCOC(=O)c1c(C)n(-c2ccccc2)c2ccc(OC(=O)c3cc(OC)c(OC)c(OC)c3)cc12 [MMV396664]	97.3	94.9
N=c1n(CCN2CCCCC2)c2ccccc2n1CC(O)c1cccc(Br)c1 (stereo not shown) [MMV665902]	115	101
COc1ccc(-c2nc(NC(=O)CS(=O)(=O)c3ccc(F)cc3)sc2C)cc1 [MMV665915]	98.3	101
CN1C=C(c2ccc3ccccc3n2)C(c2c[nH]c3ccccc23)c2ccccc21 (stereo not shown) [MMV008160]	86	91.7
Cc1ccc(C2CC(C(F)(F)F)n3nc(C(=O)N4CCN(C(c5ccccc5)c5ccccc5)CC4)cc3N2)cc1 (stereo not shown) [MMV000699]	100	101
CCCC(c1nnnn1C1CCCCC1)N1CCN(C(=O)c2ccco2)CC1 (stereo not shown) [MMV666093]	113	104
Cc1ccc(-c2cc(C(=O)Nc3ccc(S(=O)(=O)N4CCCCC4)cc3)[nH]n2)c(O)c1 [MMV665906]	105	100
CCN(CC)S(=O)(=O)c1ccc(-c2csc(Nc3ccc(C)c(C)c3)n2)cc1 [MMV009108]	107	107
CC(C)(C)c1ccc(C(=O)Nc2nc3ccccc3s2)cc1 [MMV142383]	121	110
COc1cc(C(=O)Nc2ccc(-c3nc4ccccc4[nH]3)cc2)cc(OC)c1OC [MMV665898]	103	108
COc1cc(OC)c(N(C)C(=O)c2cc3c(s2)-c2ccccc2S(=O)(=O)C3)cc1Cl [MMV006427]	104	105
COc1ccc(CNC2CCN(c3ccc(NC(=O)c4cccc(Cl)c4)cc3)CC2)cc1OC [MMV666067]	111	101
Cn1c(=O)n(C)c2cc(CNCCNc3ccnc4cc(Cl)ccc34)ccc21 [MMV665875]	88.8	95.9
COc1ccccc1CNC(=O)CCn1c(=O)[nH]c2ccsc2c1=O [MMV019066]	96.9	98.8
O=C1c2ccccc2-c2nnc(-c3ccc(Br)cc3)cc21 [MMV665934]	97.2	92.6
CNCCCNc1ccnc2cc(Cl)ccc12 [MMV020500]	97.7	98.7

Compound	activity at 2 µM [1] [%]	activity at 2 µM [2] [%]
COc1cc(C(=O)ON=C(N)Cc2cccc3ccccc23)cc(OC)c1OC [MMV666687]	104	106
CCN(CC)CCNc1ncnc2c1[nH]c1ccc(Cl)cc12 [MMV396703]	99.7	110
CN(C)c1ccc(C(O)(c2ccc(N(C)C)cc2)c2ccc(N(C)C)cc2)cc1 [MMV665941]	96.5	98.3
O=C(CCl)NCCOc1ccc(Cl)cc1Cl [MMV665927]	86.2	98.1
COc1cccc(NC(=O)[C@H](C(C)C)n2c(=O)[nH]c3ccccc3c2=O)c1 [MMV665878]	101	102
CCOC(=O)C1=C(C)N=c2sc(=Cc3ccccc3O)c(=O)n2C1c1ccc(OC)c2ccccc12 (stereo not shown) [MMV666604]	117	110
CCN(Cc1ccccc1)C1CCN(Cc2cc(Br)ccc2O)CC1 [MMV019127]	107	109
Cc1cc(NC(=O)c2cccc(C(F)(F)F)c2)n(-c2nc(-c3ccc4c(c3)OCO4)cs2)n1 [MMV396681]	102	106
Cc1cc(Nc2ccc3ccccc3c2)n2ncnc2n1 [MMV011099]	99.8	99.9
Cc1ccc(Cl)cc1N1CCN(CCCNC(=O)C2CCN(c3nc4ccccc4[nH]3)CC2)CC1 [MMV019746]	112	105
CN1CCN(c2nc(Nc3ccc(O)cc3)nc3ccccc23)CC1 [MMV000986]	101	102
O=C(NC(c1ccccc1)c1ccc2cccnc2c1O)c1ccccc1 (stereo not shown) [MMV666080]	114	104
Oc1c(CN2CCN(c3ccccc3F)CC2)cc(Br)c2cccnc12 [MMV000760]	114	112
O=C(NC1CCCCC1)C(c1cccs1)N(CCc1ccccc1)C(=O)c1ccco1 (stereo not shown) [MMV666106]	105	96.6
COc1ccc(C(O)(CCC(C)C)C(CN2CCOCC2)c2ccc(Cl)cc2)cc1 (stereo not shown) [MMV000617]	131	116
CCOC(=O)c1cnc2ccc(OC)cc2c1Nc1ccc(N2CCN(C)CC2)cc1 [MMV000704]	94.6	106
Cc1ccc(-c2nc3ccccc3o2)cc1NCc1cc(Cc2ccccc2)ccc1O [MMV020912]	94.7	99.2
CCOc1ccc2nc(C)cc(Nc3ccc(N(C)C)cc3)c2c1 [MMV007020]	102	102
CCCCN(CCCC)S(=O)(=O)c1ccc(NC(=O)c2ccco2)cc1 [MMV007881]	96.9	104
CCCN(CCC)CC(O)COc1ccccc1C(=O)Nc1ccccc1 (stereo not shown) [MMV006455]	104	105
Cc1ccc(N2C(=O)C3C(C2=O)C2(c4ccccc4)C(=O)C3(c3ccccc3)C(c3ccccc3)=C2c2ccccc2)cc1 (stereo not shown) [MMV666062]	97.6	106
CC(C)OCc1cc(CN2CCN(c3cccc(Cl)c3)CC2)c(O)c2ncccc12 [MMV000788]	107	109
O=C(NCCCN1CCC(N2CCCCC2)CC1)C1=Cc2cc(Br)ccc2OC1 [MMV019995]	106	106
CCCOCc1cc(CN2CCN(c3cccc(Cl)c3)CC2)c(O)c2ncccc12 [MMV000787]	111	101
CCN(CC)CCn1c(=N)n(CC(O)c2ccc(Cl)c(Cl)c2)c2ccccc21 (stereo not shown) [MMV000248]	98.3	97.6
